Reference: patent US20200008426A1, “ACTIVE COMPOUND COMBINATIONS” (BAYER AKTIENGESELLSCHAFT, priority 2017, published 2020)

Assay: LogP by HPLC on reversed phase columns (EEC directive 79/831 Annex V.A8)
Conditions: Table 1, formula (I); LC-UV, acidic range, 0.1% formic acid in water and acetonitrile
Description: Measurement of LogP values was performed according to EEC directive 79/831 Annex V.A8 by HPLC (High Performance Liquid Chromatography) on reversed phase columns with the following methods:
Lambda-max-values were determined using UV-spectra from 200 nm to 400 nm and the peak values of the chromatographic signals.

Structure (SMILES) | LogP [a]
CC(O)c1ccc(Oc2ccc(C(O)Cn3cncn3)c(Cl)n2)cc1 (stereo not drawn) [I.24] | 1.48^[a]
OC(Cn1cncn1)c1ccc(Oc2ccc(Cl)cc2)nc1C(F)F (stereo not drawn) [I.25] | 2.44^[a]
OC(Cn1cncn1)c1ccc(Oc2ccc(Cl)cc2)nc1OC(F)(F)F (stereo not drawn) [I.26] | 2.92^[a]
CC(O)(Cn1cncn1)c1ccc(Oc2ccc(F)cc2)nc1Cl (stereo not drawn) [I.27] | 2.28^[a]
Cc1cc(Cl)ccc1Oc1ccc(C(C)(O)Cn2cncn2)c(Cl)n1 (stereo not drawn) [I.28] | 2.94^[a]
Cc1ccc(Oc2ccc(C(C)(O)Cn3cncn3)c(Cl)n2)cc1Cl (stereo not drawn) [I.29] | 3.00^[a]
COc1ccc(Oc2ccc(C(O)Cn3cncn3)c(Cl)n2)c(Cl)c1 (stereo not drawn) [I.30] | 2.32^[a]
COc1ccc(Oc2ccc(C(C)(O)Cn3cncn3)c(Cl)n2)c(Cl)c1 (stereo not drawn) [I.31] | 2.56^[a]
CC(O)(Cn1cncn1)c1ccc(Oc2ccc(Cl)c(Cl)c2)nc1Cl (stereo not drawn) [I.32] | 3.09^[a]
CC(O)(Cn1cncn1)c1ccc(Oc2ccc(Cl)cc2)nc1OC(F)(F)F (stereo not drawn) [I.33] | 3.29^[a]
OC(Cn1cncn1)c1ccc(Oc2ccc(S(F)(F)(F)(F)F)cc2)nc1Cl (stereo not drawn) [I.34] | 2.90^[a]
CC(O)(Cn1cncn1)c1ccc(Oc2ccc(S(F)(F)(F)(F)F)cc2)nc1Cl (stereo not drawn) [I.35] | 3.17^[a]
CC(O)(Cn1cncn1)c1cnc(Oc2ccc(S(F)(F)(F)(F)F)cc2)cc1C(F)(F)F (stereo not drawn) [I.37] | 3.33^[a]
OC(Cn1cncn1)c1ccc(Oc2ccc(C(F)F)cc2)nc1Cl (stereo not drawn) [I.38] | 2.17^[a]
CC(O)(Cn1cncn1)c1ccc(Oc2ccc(C(F)F)cc2)nc1Cl (stereo not drawn) [I.39] | 2.41^[a]
OC(Cn1cncn1)c1ccc(Oc2ccc(Br)cc2)nc1C(F)(F)F (stereo not drawn) [I.40] | 2.82^[a]
OC(Cn1cncn1)c1ccc(Oc2ccc(Cl)cc2)nc1F (stereo not drawn) [I.41] | 2.23^[a]
CC(O)(Cn1cncn1)c1ccc(Oc2ccc(Cl)cc2)nc1F (stereo not drawn) [I.42] | 2.46^[a]
OC(Cn1cncn1)c1cnc(Oc2ccc(OC(F)(F)F)cc2)cc1C(F)(F)F (stereo not drawn) [I.43] | 3.00^[a]
CC(O)(Cn1cncn1)c1cnc(Oc2ccc(OC(F)(F)F)cc2)cc1C(F)(F)F (stereo not drawn) [I.44] | 3.23^[a]
OC(Cn1cncn1)c1cnc(Oc2ccc(Br)cc2)cc1C(F)(F)F (stereo not drawn) [I.48] | 2.75^[a]

Structure (SMILES) | LogP [a]
CC(O)(Cn1cncn1)c1cnc(Oc2ccc(Br)cc2)cc1C(F)(F)F (stereo not drawn) [I.49] | 2.96^[a]
CC(O)(Cn1cncn1)c1cnc(Oc2ccc(C(F)(F)F)cc2)cc1C(F)(F)F (stereo not drawn) [I.50] | 3.11^[a]
OC(Cn1cncn1)c1cnc(Oc2ccc(C(F)F)cc2)cc1C(F)(F)F (stereo not drawn) [I.55] | 2.55^[a]
CC(O)(Cn1cncn1)c1cnc(Oc2ccc(C(F)F)cc2)cc1C(F)(F)F (stereo not drawn) [I.56] | 2.73^[a]
OC(Cn1cncn1)c1cnc(Oc2ccc(Cl)cc2F)cc1C(F)(F)F (stereo not drawn) [I.57] | 2.86^[a]
CC(O)(Cn1cncn1)c1cnc(Oc2ccc(Cl)cc2F)cc1C(F)(F)F (stereo not drawn) [I.58] | 3.02^[a]
OC(Cn1cncn1)c1ccc(Oc2ccc(S(F)(F)(F)(F)F)cc2)nc1C(F)(F)F (stereo not drawn) [I.60] | 3.08^[a]
OC(Cn1cncn1)c1ccc(Oc2ccc(C(F)(F)F)cc2)nc1C(F)(F)F (stereo not drawn) [I.61] | 2.84^[a]
CC(O)(Cn1cncn1)c1ccc(Oc2ccc(S(F)(F)(F)(F)F)cc2)nc1C(F)(F)F (stereo not drawn) [I.62] | 3.25^[a]
OC(Cn1cncn1)c1cnc(Oc2ccc(Br)cc2)cc1C(F)F (stereo not drawn) [I.63] | 2.59^[a]
CC(O)(Cn1cncn1)c1cnc(Oc2ccc(Cl)cc2)cc1C(F)F (stereo not drawn) [I.64] | 2.68^[a]
CC(O)(Cn1cncn1)c1ccc(Oc2ccc(C(F)(F)F)cc2)nc1C(F)(F)F (stereo not drawn) [I.65] | 3.04^[a]
CC(O)(Cn1cncn1)c1ccc(Oc2ccc(Cl)cc2F)nc1C(F)(F)F (stereo not drawn) [I.66] | 2.80^[a]
CC(O)(Cn1cncn1)c1ccc(Oc2ccc(Cl)cc2)nc1C(F)(F)F (stereo not drawn) [I.67] | 2.68^[a]
OC(Cn1cncn1)c1cnc(Oc2ccc(Cl)cc2)cc1Cl (stereo not drawn) [I.68] | 2.48^[a]
C=CC(O)(Cn1cncn1)c1cnc(Oc2ccc(C(F)(F)F)cc2)cc1C(F)(F)F (stereo not drawn) [I.69] | 3.33^[a]
OC(Cn1cncn1)c1ccc(Oc2ccc(Cl)cc2F)nc1C(F)(F)F (stereo not drawn) [I.70] | 2.78^[a]
OC(Cn1cncn1)(c1ccc(Oc2ccc(Cl)cc2)nc1C(F)(F)F)C1CC1 (stereo not drawn) [I.71] | 3.35^[a]
OC(Cn1cncn1)c1ccc(Oc2ccc(Br)cc2)nc1C(F)F (stereo not drawn) [I.73] | 2.50^[a]
OC(Cn1cncn1)c1ccc(Oc2ccc(C(F)F)cc2)nc1C(F)(F)F (stereo not drawn) [I.74] | 2.49^[a]
CC(C)c1ccc(Oc2ccc(C(C)(O)Cn3cncn3)c(C(F)(F)F)n2)cc1 (stereo not drawn) [I.75] | 3.35^[a]
